# Test results from ChEMBL document CHEMBL3046559, “Sterile oat (Avena sterilis L.) cross-resistance profile to ACCase-inhibiting herbicides in Greece” (2012).
# Tests used:
# Type in all cases: functional
# [1] = tested on: Avena sterilis; assay: Herbicidal activity against Avena sterilis accession P15 assessed as weed survival at 32 times field recommended herbicide dose
# [2] = tested on: Avena sterilis; assay: Herbicidal activity against Avena sterilis accession P13S assessed as weed survival at 1/8 times field recommended herbicide dose
# [3] = tested on: Avena sterilis; assay: Resistance index, ratio of GR50 for Avena sterilis accession P14 to GR50 for Avena sterilis accession P10S
# [4] = tested on: Avena sterilis; assay: Resistance index, ratio of GR50 for Avena sterilis accession P15 to GR50 for Avena sterilis accession P10S
# [5] = tested on: Avena sterilis; assay: Resistance index, ratio of GR50 for Avena sterilis accession P13S to GR50 for Avena sterilis accession P10S
# [6] = tested on: Avena sterilis; assay: Herbicidal activity against Avena sterilis accession P11 assessed as weed survival at 16 times field recommended herbicide dose
# [7] = tested on: Avena sterilis; assay: Resistance index, ratio of GR50 for Avena sterilis accession P16 to GR50 for Avena sterilis accession P10S
# [8] = tested on: Avena sterilis; assay: Herbicidal activity against Avena sterilis accession P22 assessed as weed survival at 16 times field recommended herbicide dose
# [9] = tested on: Avena sterilis; assay: Herbicidal activity against Avena sterilis accession P05 assessed as weed survival at 16 times field recommended herbicide dose
# [10] = tested on: Avena sterilis; assay: Resistance index, ratio of GR50 for Avena sterilis accession P18 to GR50 for Avena sterilis accession P10S
# [11] = tested on: Avena sterilis; assay: Resistance index, ratio of GR50 for Avena sterilis accession P08 to GR50 for Avena sterilis accession P10S
# [12] = tested on: Avena sterilis; assay: Resistance index, ratio of GR50 for Avena sterilis accession P22 to GR50 for Avena sterilis accession P10S
# [13] = tested on: Avena sterilis; assay: Resistance index, ratio of GR50 for Avena sterilis accession P04 to GR50 for Avena sterilis accession P10S
# [14] = tested on: Avena sterilis; assay: Resistance index, ratio of GR50 for Avena sterilis accession P02 to GR50 for Avena sterilis accession P10S
# [15] = tested on: Avena sterilis; assay: Resistance index, ratio of GR50 for Avena sterilis accession P09 to GR50 for Avena sterilis accession P10S
# [16] = tested on: Avena sterilis; assay: Resistance index, ratio of GR50 for Avena sterilis accession P06S to GR50 for Avena sterilis accession P10S
# [17] = tested on: Avena sterilis; assay: Resistance index, ratio of GR50 for Avena sterilis accession P05 to GR50 for Avena sterilis accession P10S
# [18] = tested on: Avena sterilis; assay: Resistance index, ratio of GR50 for Avena sterilis accession P20 to GR50 for Avena sterilis accession P10S
# [19] = tested on: Avena sterilis; assay: Resistance index, ratio of GR50 for Avena sterilis accession P21S to GR50 for Avena sterilis accession P10S
# [20] = tested on: Avena sterilis; assay: Resistance index, ratio of GR50 for Avena sterilis accession P11 to GR50 for Avena sterilis accession P10S
# [21] = tested on: Avena sterilis; assay: Resistance index, ratio of GR50 for Avena sterilis accession P17 to GR50 for Avena sterilis accession P10S
# [22] = tested on: Avena sterilis; assay: Resistance index, ratio of GR50 for Avena sterilis accession P01 to GR50 for Avena sterilis accession P10S
# [23] = tested on: Avena sterilis; assay: Resistance index, ratio of GR50 for Avena sterilis accession P12 to GR50 for Avena sterilis accession P10S
# [24] = tested on: Avena sterilis; assay: Resistance index, ratio of GR50 for Avena sterilis accession P03 to GR50 for Avena sterilis accession P10S
# [25] = tested on: Avena sterilis; assay: Herbicidal activity against Avena sterilis accession P19S assessed as weed survival at 1/8 times field recommended herbicide dose
# [26] = tested on: Avena sterilis; assay: Resistance index, ratio of GR50 for Avena sterilis accession P19S to GR50 for Avena sterilis accession P10S
# [27] = tested on: Avena sterilis; assay: Resistance index, ratio of GR50 for Avena sterilis accession P07 to GR50 for Avena sterilis accession P10S
Structure (SMILES),Survival [1] [%],Survival [2] [%],Ratio [4],Ratio [5],Survival [6] [%],Ratio [7],Survival [8] [%],Survival [9] [%],Ratio [11],Ratio [12],Ratio [13],Ratio [14],Ratio [15],Ratio [16],Ratio [18],Ratio [19],Ratio [21],Ratio [22],Survival [25] [%],Ratio [26],also measured
C#CCOC(=O)[C@@H](C)Oc1ccc(Oc2ncc(Cl)cc2F)cc1 [CLODINAFOP PROPARGYL],93,63,>164,0.6,97,21,0,13,>164,15,>164,>164,6,1.1,63,1.4,35,130,97,3.6,Ratio [3]: 150; Ratio [10]: 64; Ratio [17]: 22; Ratio [20]: >164; Ratio [23]: >164; Ratio [24]: >164
COC(=O)C(C)Oc1ccc(Oc2ccc(Cl)cc2Cl)cc1 (centres undefined) [DICLOFOP-METHYL],80,83,>50,1,70,11,27,20,22,8,28,>50,28,1.1,>50,0.8,17,43,100,0.9,Ratio [3]: 22; Ratio [10]: 20; Ratio [17]: 10; Ratio [20]: >50; Ratio [23]: >50; Ratio [27]: 7; Ratio [24]: 26
CCOC(=O)[C@@H](C)Oc1ccc(Oc2nc3ccc(Cl)cc3o2)cc1 [FENOXAPROP-P-ETHYL],23,80,92,1.1,57,32,0,20,55,16,59,133,136,1.1,>165,1.2,19,38,87,1.9,Ratio [3]: 10; Ratio [10]: >165; Ratio [17]: 12; Ratio [20]: 145; Ratio [23]: 83; Ratio [27]: >165; Ratio [24]: 55
COCc1cnc(C2=NC(C)(C(C)C)C(=O)N2)c(C(=O)O)c1 (centres undefined) [IMAZAMOX],0,50,,,0,,0,0,,,,,,,,,,,80,,
CCc1cc(C)cc(CC)c1-c1c(OC(=O)C(C)(C)C)n2n(c1=O)CCOCC2 [PINOXADEN],0,20,,1,0,,0,0,,,18,,,0.9,10,1.4,,,50,1.6,
CCO/N=C(\CC)C1=C(O)CC(c2c(C)cc(C)cc2C)CC1=O (centres undefined) [TRALKOXYDIM],0,23,26,1,0,32,20,0,27,15,266,38,19,1,102,3,14,27,93,0.4,Ratio [24]: 55
